The text below walks through data of PMC5784158, “New 2-Aryl-9-methyl-β-carbolinium salts as Potential Acetylcholinesterase Inhibitor agents: Synthesis, Bioactivity and Structure–Activity Relationship” (Scientific Reports, 2018).

For this assay, the target named is AChE (Musca domestica, UniProt Q7YWJ9). The assay can be described thus: biochemical. It counts as biochemical, fly. Particulars: for Inhibition rate (%): test concentration of the compound 10 μM. On the procedure:
AChE (E.C. 3.1.1.7) (BR, 200 u/mg) from fly’s head and BuChE (E.C. 3.1.1.8) (BR, 20 u/mg) from horse serum were purchased from Shanghai Yuanye biological technology Co. Ltd (Shanghai, China).
The inhibitory activities of the compounds against AChE were evaluated according to Ellman’s coupled enzyme assay[47] with the following modifications. 90 μL potassium phosphate buffer (PBS, 0.1 M, pH 7.4), 10 μL the solution of 2 units/mL AChE in 0.1 M PBS (pH 7.4) and 10 μL the solution of 200 μM test compounds in the mixed solution of methanol-PBS (pH 7.4) (1:9, V/V) were added to each well of a 96-well plate. The methanol-PBS solution was used as a blank control. After incubation at room temperature for 10 min, 60 μL the solution of 10 mM DTNB in PBS was added into each the well. The plate was placed on crushed ices and cooled for 20 min. To each the well was added 30 μL the solution of 7.5 mM ATCh in PBS (pH 7.4). […] Each test was performed in triplicate. Inhibition rates of the enzyme were calculated relative to a control sample. The inhibitory activities against BuChE were measured as described above for AChE, using 0.7 unit/mL BuChE and 4 mM BuTCh instead of AChE and ATCh as the enzyme and substrate, respectively.
The probit value of the average inhibition rate for each test concentration and the corresponding lg[concentration] were used to establish enzyme inhibition regression equation by the linear least-square fitting method. IC50 values were calculated from the equations.

Setting [1] is: Estimated values based on the results in Table 1 (inhibition rate at 10 μM), read-out: IC50 AChE, estimated values.

Each structure is given as a SMILES string. Like-named read-outs stand apart in the source and are kept apart here.

By IC50 is commonly meant the concentration that inhibits the measured activity by half.

AChE, sequence (Q7YWJ9 81-659): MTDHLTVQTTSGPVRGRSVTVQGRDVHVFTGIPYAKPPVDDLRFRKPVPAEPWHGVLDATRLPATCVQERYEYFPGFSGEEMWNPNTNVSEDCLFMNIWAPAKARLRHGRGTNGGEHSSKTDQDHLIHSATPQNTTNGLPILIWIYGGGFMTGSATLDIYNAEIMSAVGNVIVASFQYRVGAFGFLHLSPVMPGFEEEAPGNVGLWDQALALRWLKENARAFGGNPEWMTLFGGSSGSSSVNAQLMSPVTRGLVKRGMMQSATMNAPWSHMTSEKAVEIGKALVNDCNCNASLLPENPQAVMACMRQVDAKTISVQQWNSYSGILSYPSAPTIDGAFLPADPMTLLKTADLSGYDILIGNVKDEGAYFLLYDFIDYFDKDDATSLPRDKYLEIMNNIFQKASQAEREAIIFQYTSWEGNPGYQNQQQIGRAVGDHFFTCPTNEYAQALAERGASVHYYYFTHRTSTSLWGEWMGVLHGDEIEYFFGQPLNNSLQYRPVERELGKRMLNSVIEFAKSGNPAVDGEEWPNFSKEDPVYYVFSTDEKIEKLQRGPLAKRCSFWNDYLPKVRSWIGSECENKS

Consider `Cn1c2c(c3ccccc31)CC[N+](c1ccccc1F)=C2.[Br-]` [Compound A2], for which the “Inhibition rate (%)” value was 15.1 ± 2.8 mnop %. Further, the IC50 under setting [1] was over 10 µM.
In the case of `Cn1c2c(c3ccccc31)CC[N+](c1cccc(F)c1)=C2.[Br-]` [Compound A3], the “Inhibition rate (%)” value is given as 22.4 ± 1.1 l %. In addition, the IC50 under setting [1] is over 10 µM.
The corresponding values for `Cn1c2c(c3ccccc31)CC[N+](c1ccccc1Cl)=C2.[Br-]` [Compound A5] are 2.4 ± 8.0 stu % and over 10 µM.
Consider `Cn1c2c(c3ccccc31)CC[N+](c1cccc(Cl)c1)=C2.[Br-]` [Compound A6], for which the “Inhibition rate (%)” value is recorded as 19.3 ± 4.0 lm %. In addition, the IC50 under setting [1] is over 10 µM.
For `Cn1c2c(c3ccccc31)CC[N+](c1ccccc1Br)=C2.[Br-]` [Compound A8], the “Inhibition rate (%)” value is 5.9 ± 1.0 qrs %. Besides, the IC50 under setting [1] is over 10 µM.
Consider `Cn1c2c(c3ccccc31)CC[N+](c1cccc(Br)c1)=C2.[Br-]` [Compound A9], for which the “Inhibition rate (%)” value worked out at 16.2 ± 3.3 mno %. Under setting [1], the IC50 was over 10 µM.
Regarding `Cn1c2c(c3ccccc31)CC[N+](c1ccccc1I)=C2.[Br-]` [Compound A11], the “Inhibition rate (%)” value was −10.6 ± 3.0 w %. The IC50 (10 μM, read-out: IC50 AChE, NA) is over 10 µM.
Consider `Cn1c2c(c3ccccc31)CC[N+](c1cccc(I)c1)=C2.[Br-]` [Compound A12], for which the “Inhibition rate (%)” value turned out to be 10.1 ± 2.8 pqr %. Further, under setting [1], the IC50 was over 10 µM.
In the same order, the values of `Cn1c2c(c3ccccc31)CC[N+](c1ccccc1O)=C2.[Br-]` [Compound A14] are 23.2 ± 2.5 kl % and over 10 µM.
On to `COc1ccccc1[N+]1=Cc2c(c3ccccc3n2C)CC1.[Br-]` [Compound A17], for which the “Inhibition rate (%)” value is listed as 5.8 ± 2.4 qrs %. The IC50 under setting [1] was over 10 µM.
Turning to `COc1cccc([N+]2=Cc3c(c4ccccc4n3C)CC2)c1.[Br-]` [Compound A18], the “Inhibition rate (%)” value turned out to be 4.7 ± 1.5 rst %. Moreover, the IC50 under setting [1] was over 10 µM.
For `Cc1ccccc1[N+]1=Cc2c(c3ccccc3n2C)CC1.[Br-]` [Compound A20], the “Inhibition rate (%)” value turned out to be 44.3 ± 1.7 j %. Moreover, under setting [1], the IC50 is over 10 µM.
`Cc1cccc([N+]2=Cc3c(c4ccccc4n3C)CC2)c1.[Br-]` [Compound A21]: the “Inhibition rate (%)” value is on record as 28.6 ± 1.7 k %. For the same compound, the IC50 under setting [1] was over 10 µM.
For the compound `Cn1c2c(c3ccccc31)CC[N+](c1ccccc1C#N)=C2.[Br-]` [Compound A23], the “Inhibition rate (%)” value was 10.1 ± 1.6 pqr %. Moreover, the IC50 under setting [1] was over 10 µM.
In the case of `Cn1c2c(c3ccccc31)CC[N+](c1cccc(C#N)c1)=C2.[Br-]` [Compound A24], the “Inhibition rate (%)” value is recorded as 18.9 ± 0.3 lmn %. Also, the IC50 under setting [1] is over 10 µM.
As to `Cn1c2c(c3ccccc31)CC[N+](c1ccc(C#N)cc1)=C2.[Br-]` [Compound A25], the “Inhibition rate (%)” value turned out to be 15.6 ± 1.8 mnop %. Also, the IC50 under setting [1] was over 10 µM.
Regarding `Cn1c2c(c3ccccc31)CC[N+](c1cccc(C(F)(F)F)c1)=C2.[Br-]` [Compound A26], the “Inhibition rate (%)” value amounted to 12.8 ± 2.1 kln %. For the same compound, under setting [1], the IC50 is over 10 µM.
Take `Cn1c2c(c3ccccc31)CC[N+](c1ccc(C(F)(F)F)cc1)=C2.[Br-]` [Compound A27]: the “Inhibition rate (%)” value stood at 28.4 ± 1.0 k %. Also, under setting [1], the IC50 was over 10 µM.
Turning to `Cn1c2c(c3ccccc31)CC[N+](c1cccc([N+](=O)[O-])c1)=C2.[Br-]` [Compound A28], the “Inhibition rate (%)” value is 14.5 ± 3.9 mnop %. In addition, the IC50 under setting [1] was over 10 µM.
Turning to `Cn1c2c(c3ccccc31)CC[N+](c1c(F)cccc1F)=C2.[Br-]` [Compound A29], the “Inhibition rate (%)” value is −3.3 ± 2.0 uv %. The IC50 (10 μM, read-out: IC50 AChE, NA) is over 10 µM.
Consider `Cn1c2c(c3ccccc31)CC[N+](c1ccc(Cl)cc1Cl)=C2.[Br-]` [Compound A30], for which the “Inhibition rate (%)” value is −0.5 ± 2.4 tu %. Further, the IC50 (10 μM, read-out: IC50 AChE, NA) was over 10 µM.
In the case of `Cn1c2c(c3ccccc31)CC[N+](c1cc(Cl)cc(Cl)c1)=C2.[Br-]` [Compound A31], the “Inhibition rate (%)” value turned out to be 0.7 ± 0.5 stu %. For the same compound, for the setting “10 μM, read-out: IC50 AChE, NA”, the IC50 was over 10 µM.
As for `Cn1c2c(c3ccccc31)CC[N+](c1ccc(Br)cc1F)=C2.[Br-]` [Compound A32], the “Inhibition rate (%)” value is on record as 11.1 ± 2.8 opq %. Besides, the IC50 under setting [1] was over 10 µM.
Take `Cn1c2c(c3ccccc31)CC[N+](c1ccc(Br)cc1Br)=C2.[Br-]` [Compound A33]: the “Inhibition rate (%)” value is reported as “no activity”. For the same compound, under “10 μM, read-out: IC50 AChE, NA”, the IC50 was over 10 µM. For the same compound, the “Inhibition rate (%)” value (10 µM) is reported as −7.0 ± 8.3 vw %.
Consider `CC(C)Cn1c2c(c3ccccc31)CC[N+](c1ccccc1)=C2.[Br-]` [Compound A43], for which the “Inhibition rate (%)” value stood at 46.5 ± 1.9 ghi %. Under setting [1], the IC50 is over 10 µM.
For `C1=[N+](c2ccccc2)CCc2c1n(Cc1ccccc1)c1ccccc21.[Br-]` [Compound A44], the “Inhibition rate (%)” value is listed as 31.2 ± 4.4 ef %. Besides, the IC50 under setting [1] is over 10 µM.
As to `CCOC(=O)Cn1c2c(c3ccccc31)CC[N+](c1ccccc1)=C2.[Br-]` [Compound A45], the “Inhibition rate (%)” value is listed as 38.8 ± 4.6 j %. In addition, the IC50 under setting [1] is over 10 µM.
In the case of `Brc1ccc([N+]2=Cc3[nH]c4ccccc4c3CC2)cc1.[Br-]` [Compound A47], the “Inhibition rate (%)” value was 16.0 ± 1.7 mnop %. Besides, under setting [1], the IC50 is over 10 µM.
In the case of `Cn1c2ccccc2c2cc[n+](-c3ccccc3)cc21.[Br-]` [Compound B1, 9-Methyl-2-phenyl-β-carboline bromide], the “Inhibition rate (%)” value was 71.5 ± 0.3 l %. Further, the IC50 (read-out: IC50 ± S.D AChE) came out at 3.18 ± 0.12 µM.
On to `Cn1c2ccccc2c2cc[n+](-c3ccccc3Cl)cc21.[Br-]` [Compound B5, 9-Methyl-2-(2-chlorophenyl)-β-carboline bromide], for which the “Inhibition rate (%)” value came to 38.5 ± 1.9 st %. Moreover, the IC50 under setting [1] is over 10 µM.
For the compound `Cn1c2ccccc2c2cc[n+](-c3ccccc3Br)cc21.[Br-]` [Compound B8, 9-Methyl-2-(2-bromophenyl)-β-carboline bromide], the “Inhibition rate (%)” value came out at 32.1 ± 0.9 u %. The IC50 under setting [1] is over 10 µM.
Take `Cn1c2ccccc2c2cc[n+](-c3cccc(Br)c3)cc21.[Br-]` [Compound B9, 9-Methyl-2-(3-bromophenyl)-β-carboline bromide]: the “Inhibition rate (%)” value stood at 48.8 ± 6.6 q %. Further, the IC50 under setting [1] is about 10 µM.
Consider `Cn1c2ccccc2c2cc[n+](-c3ccccc3I)cc21.[Br-]` [Compound B11, 9-Methyl-2-(2-iodohenyl)-β-carboline bromide], for which the “Inhibition rate (%)” value came to 43.3 ± 1.8 r %. The IC50 under setting [1] is over 10 µM.
As for `Cn1c2ccccc2c2cc[n+](-c3ccccc3O)cc21.[Br-]` [Compound B14, 9-Methyl-2-(2-hydroxyhenyl)-β-carboline bromide], the “Inhibition rate (%)” value is on record as 23.9 ± 4.3 v %. The IC50 under setting [1] is over 10 µM.
Consider `COc1ccccc1-[n+]1ccc2c3ccccc3n(C)c2c1.[Br-]` [Compound B17, 9-Methyl-2-(2-methoxylphenyl)-β-carboline bromide], for which the “Inhibition rate (%)” value is on record as 41.0 ± 2.9 rs %. In addition, the IC50 under setting [1] is over 10 µM.
In the same order, the values of `Cn1c2ccccc2c2cc[n+](-c3ccc(C#N)cc3)cc21.[Br-]` [Compound B25, 9-Methyl-2-(4-cyanophenyl)-β-carboline bromide] are 36.8 ± 0.8 t % and over 10 µM.
Regarding `Cn1c2ccccc2c2cc[n+](-c3cccc(C(F)(F)F)c3)cc21.[Br-]` [Compound B26, 9-Methyl-2-(3-trifluoromethylphenyl)-β-carboline bromide], the “Inhibition rate (%)” value stood at 41.0 ± 1.9 rs %. Besides, the IC50 under setting [1] is over 10 µM.
Take `Cn1c2ccccc2c2cc[n+](-c3cccc([N+](=O)[O-])c3)cc21.[Br-]` [Compound B28, 9-Methyl-2-(3-nitrophenyl)-β-carboline bromide]: the “Inhibition rate (%)” value amounted to 34.9 ± 1.8 tu %. Under setting [1], the IC50 was over 10 µM.
In the same order, the values of `Cn1c2ccccc2c2cc[n+](-c3c(F)cccc3F)cc21.[Br-]` [Compound B29, 9-Methyl-2-(2,6-difluorophenyl)-β-carboline bromide] are 48.5 ± 3.1 pq % and about 10 µM.
`Cn1c2ccccc2c2cc[n+](-c3cc(Cl)cc(Cl)c3)cc21.[Br-]` [Compound B31, 9-Methyl-2-(3,5-dichlorophenyl)-β-carboline bromide]: the “Inhibition rate (%)” value was found to be 18.9 ± 2.5 v %. For the same compound, the IC50 under setting [1] was over 10 µM.
For `COc1ccc2c(c1)c1cc[n+](-c3ccccc3)cc1n2C.[Br-]` [Compound B34, 6-Methoxy-9-methyl-2-phenyl-β-carboline bromide], the “Inhibition rate (%)” value is 85.7 ± 2.5 ghi %. Moreover, the IC50 (read-out: IC50 ± S.D AChE) is 0.94 ± 0.23 µM.
For `Cc1ccc2c(c1)c1cc[n+](-c3ccccc3)cc1n2C.[Br-]` [Compound B35, 6,9-Dimethyl-2-phenyl-β-carboline bromide], the “Inhibition rate (%)” value came out at 88.6 ± 2.5 efg %. Further, the IC50 (read-out: IC50 ± S.D AChE) is 0.42 ± 0.15 µM.
